Measured values from patent US7498330B2, “4-oxo-4,6,7,8-tetrahydro-pyrrolo[1,2-a]pyrazine-6-carboxamide compounds” (Les Laboratories Servier, priority 2004, dated 2009).
Counter-ions that a name gives are not always drawn.

target: T1, human thrombin (Homo sapiens, UniProt P00734); assay: Inhibition of human thrombin activity on human fibrinogen (fibrin formation, 405 nm); format: biochemical; settings: thrombin 0.7 nM, purified human fibrinogen, pre-incubation 20° C. 10 minutes, pH 7.4; read-out: IC50 (concentration of the compounds that inhibits 50% of the enzymatic activity of the thrombin)
T1 construct: human thrombin (Sigma, specific activity 3230 UNIH/mg); purchased Sigma
Description: For in vitro evaluation of the inhibitory activity of the products of the invention on human thrombin (Sigma, specific activity 3230 UNIH/mg), purified human fibrinogen ([…], Stago) (Fg) was added to a given amount of thrombin (0.7 nM) that had previously been incubated with or without the inhibitor to be tested (20° C., 10 minutes).
Inhibitors, enzymes and substrates are diluted in the same buffer ([…] phosphate buffer, pH 7.4, containing 0.12 M sodium chloride and 0.05% bovine serum albumin) and then distributed on a polystyrene microtitre plate in a volume of 50 μl.
The fibrin formed by the thrombin is measured using a spectrophotometer at 405 nm after from 10 to 15 minutes' reaction at 20° C.
The table below gives in nM the concentration of the compounds that inhibits 50% of the enzymatic activity (IC50) of the thrombin compared with the control without product.

Compound | IC50 [nM]
O=C(NCc1ccccc1Cl)C1CCc2cnc(NCC(F)(F)c3cccc[n+]3[O-])c(=O)n21 (racemic) [Example 8, 3-{[2,2-Difluoro-2-(1-oxido-2-pyridyl)ethyl]amino}-N-(2-chlorobenzyl)-4-oxo-4,6,7,8-tetrahydropyrrolo[1,2-a]pyrazine-6-carboxamide] | 38
O=C(NCc1ccccc1F)[C@@H]1CCc2cnc(NCC(F)(F)c3cccc[n+]3[O-])c(=O)n21 [Example 3, (6S)-3-{[2,2-Difluoro-2-(1-oxido-2-pyridyl)ethyl]amino}-N-(2-fluorobenzyl)-4-oxo-4,6,7,8-tetrahydropyrrolo[1,2-a]pyrazine-6-carboxamide] | 16
O=C(NCc1cccs1)[C@@H]1CCc2cnc(NCC(F)(F)c3cccc[n+]3[O-])c(=O)n21 [Example 24, (6S)-3-{[2,2-Difluoro-2-(1-oxido-2-pyridyl)ethyl]amino}-N-(2-thienylmethyl)-4-oxo-4,6,7,8-tetrahydropyrrolo[1,2-a]pyrazine-6-carboxamide hydrochloride] | 60
O=C(NCc1ccccc1F)C1CCc2cnc(NCC(F)(F)c3cccc[n+]3[O-])c(=O)n21 (racemic) [Example 1, 3-{[2,2-Difluoro-2-(1-oxido-2-pyridyl)ethyl]amino}-N-(2-fluorobenzyl)4-oxo-4,6,7,8-tetrahydropyrrolo[1,2-a]pyrazine-6-carboxamide] | 28
O=C(NCc1c(F)ccc(F)c1F)[C@@H]1CCc2cnc(NCC(F)(F)c3cccc[n+]3[O-])c(=O)n21 [Example 21, (6S)-3-{[2,2-Difluoro-2-(1-oxido-2-pyridyl)ethyl]amino}-N-(2,3,6-trifluorobenzyl)-4-oxo-4,6,7,8-tetrahydropyrrolo[1,2-a]pyrazine-6-carboxamide] | 11

The next compounds have a lower IC50 than those just listed; values first:

IC50 [nM] | Compound
8.4 | O=C(NCc1ccccc1F)[C@@H]1CCc2cnc(NCC(F)(F)c3ccc4ccccc4[n+]3[O-])c(=O)n21 [Example 31, (6S)-3-{[2,2-Difluoro-2-(1-oxido 2-quinolinyl)ethyl]amino}-N-(2-fluorobenzyl)4-oxo-4,6,7,8-tetrahydropyrrolo[1,2-a]pyrazine 6-carboxamide]
1.4 | O=C(COc1ccccc1CNC(=O)C1CCc2cnc(NCC(F)(F)c3cccc[n+]3[O-])c(=O)n21)NCCc1ccccn1 (stereo not shown) [Example 15, 3-{[2,2-Difluoro-2-(1-oxido-2-pyridyl)ethyl]amino}4-oxo-N-[2-(2-oxo-2-{[2-(2-pyridyl)ethyl]amino}ethoxy)benzyl]-4,6,7,8-tetrahydropyrrolo[1,2-a]pyrazine-6-carboxamide hydrochloride]
